# From patent US8173604B2, “Inhibition of Skp2-cyclin a interaction” (Albert Einstein College of Medicine of Yeshiva University, priority 2006, dated 2012)
# Where two headings read alike, the source gives them in different places. Ends that are not written are not given here.
# Columns and labels:
# [1] = biological target: T1, Skp2-cyclin A interaction (Homo sapiens, UniProt P20248); assay: GST pull-down, blocking of Skp2-cyclin A interaction by peptides; type: binding; settings: GST-Skp2N, myc-cyclin A/Cdk2 transfected 293T cell extracts
# T1 construct: expressed in transfected cells; host or cells: 293T (cyclin A/Cdk2)
# Experimental: (§1) GST pull down, p27 ubiquitylation assay, and cyclin A kinase assay. GST fusion proteins were purified on GSH-beads (Amersham), which were then incubated with transfected cell extracts for 1 hour in 4° C. with rocking. The beads were washed three times with lysis buffer (25 mM Hepes pH 7.6, 100 mM KCl, 0.1 mM EDTA, 10 mM MgCl2, 0.1% NP-40, 10% glycerol, 1 mM DTT) before analysis by SDS-PAGE and Western blotting.
# (§2) Skp2-cyclin A interaction and p27-cyclin A interaction can be blocked by distinct peptides. An important aspect of the RxL-1-IP interaction is that it can be blocked by a short RxL peptide (Adams et al., 1996). If the Skp2-cyclin A/Cdk2 interaction and the p27-cyclin A/Cdk2 interaction are mediated by different sequences on both sides of the interaction, as shown above, it can be predicted that the RxL peptide should not block Skp2-cyclin A interaction. […] Peptide concentrations required for their respective blocking activities were similar for RxL and 4060 peptides.
# p27-cyclin A interaction = biological target: T2, p27-cyclin A interaction (Homo sapiens, UniProt P20248); assay: GST pull-down, blocking of p27-cyclin A interaction; type: binding; settings: GST-p27, myc-cyclin A/Cdk2 transfected 293T cell extracts
# T2 construct: expressed in transfected cells; host or cells: 293T (cyclin A/Cdk2)
# Experimental: as §1, §2
# Skp2 competes with p27/p21, but not E2F1, for binding to cyclin A. Whether the apparently distinct Skp2-cyclin A interaction and p27-cyclin A interaction are competitive against each other was next evaluated. […] Whether the competition between Skp2 and p27/p21 for cyclin A binding could be observed in vivo with endogenous proteins under physiological conditions was next determined. […]
# cyclin A/Cdk2 [2] = biological target: T3, cyclin A/Cdk2 (Homo sapiens, UniProt P20248+P24941); assay: IP-kinase assay with myc-cyclin A/Cdk2 transfected 293T cell extract; type: biochemical; settings: increasing amounts of peptide
# T3 construct: made in house; host or cells: insect cells (baculovirus)
# Experimental: In panel A, an IP-kinase assay was performed with myc-cyclin A/Cdk2 transfected 293T cell extract in the presence of increasing amounts of RxL or 4060 peptides. Phosphorylation of GST-Skp2N is visible in this gel. […] As indicated, increasing amounts of the 4060 or 4060AAAA peptides were included in the reactions. Phosphorylation of Rb-C was quantified and plotted as shown.
# Cyclin A/Cdk2 kinase assays were performed as described previously (Ji et al., 2004). Both immuno-purified myc-cyclin A/Cdk2 on beads and GST-purified and eluted GST-cyclin A/Cdk2 (baculovirus vectors for GST-cyclin A and Cdk2 were provided by Brian Dynlacht) were used. The amounts of purified proteins were determined by comparing them with known amounts of standard proteins in Coomassie blue stained gels. Phosphorylation of GST-Rb-C was quantified with the ImageQuant software. The Ki of various proteins was determined by non-linear least squares analysis. […] Actual amounts of proteins in 7.5×10^4 HeLa cells were then determined (for example, the amounts of p27, Skp2, and cyclin A in 7.5×10^4 HeLa cells were determined to be about 0.1, 0.2, and 0.1 pmoles, respectively, at 14 hours post-replating; and about 0.01, 0.1, and 1.0 pmoles, respectively, at 19 hours post-replating). […]
# [3] = biological target: T4, interaction between cellular Skp2 and cyclin A/Cdk2 (Homo sapiens, UniProt P20248); assay: Coimmunoprecipitation with cyclin A from peptide-treated U2OS cells; type: cell-based; settings: 50 μM peptide, twelve hours
# T4 construct: endogenous in cells; host or cells: U2OS
# Experimental: (§3) FIG. 12 is photographs of western blots and kinase assays and graphs showing the effects of trans-membrane delivery of the 4060 peptide. In Panel A, U2OS cells were treated with 50 μM of indicated peptide for twelve hours. Cell extracts were prepared for immunoprecipitation and Western blot analysis as indicated. […] In Panel C, the same extracts were used in IP-kinase assays as indicated. The extent of phosphorylation was quantified and plotted.
# (§4) The loss of Skp2-cyclin A/Cdk2 interaction was not due to a reduction in levels of these proteins (FIG. 12B). Importantly, cellular p27 protein levels were not affected by the blocking peptide. […] Here, it is important to point out that although we used p27 as an inhibitor of cyclin A-associated kinase activity in purified kinase reactions with the 4060 blocking peptide shown in FIG. 11, the effects of blocking Skp2-cyclin A interaction on cyclin A-associated kinase activity in cells is unlikely to be mediated by p27 alone. There was no significant interaction between p27 and cyclin A in U2OS cells before and after treatment of TAT-4060. p27 family members p21 and p57, and the pocket proteins p107 and p130 (Adams et al., 1996) may bind and inhibit cyclin A-associated kinase activity through the RxL-HP interaction mechanism. […]
# [4] = test system: cyclin A-associated kinase activity; assay: IP-kinase assay of anti-cyclin A and anti-Cdk2 immune complexes from peptide-treated U2OS cells; type: cell-based, human; settings: 50 μM peptide, twelve hours, compared with TAT-4060AAAA or TAT-Umt
# Experimental: as §3, §4
# cyclin A/Cdk2 [5] = biological target: T3, cyclin A/Cdk2; assay: In vitro cyclin A/Cdk2 kinase assay with purified proteins (GST-Rb-C substrate); type: biochemical
# Experimental: Cyclin A/Cdk2 kinase assays were performed as described previously (Ji et al., 2004). Both immuno-purified myc-cyclin A/Cdk2 on beads and GST-purified and eluted GST-cyclin A/Cdk2 (baculovirus vectors for GST-cyclin A and Cdk2 were provided by Brian Dynlacht) were used. The amounts of purified proteins were determined by comparing them with known amounts of standard proteins in Coomassie blue stained gels. Phosphorylation of GST-Rb-C was quantified with the ImageQuant software. The Ki of various proteins was determined by non-linear least squares analysis. To determine the amounts of various proteins in synchronized HeLa cells, extracts representing 7.5×10^4 HeLa cells were resolved with known amounts of purified proteins and compared in the same Western blots. Actual amounts of proteins in 7.5×10^4 HeLa cells were then determined (for example, the amounts of p27, Skp2, and cyclin A in 7.5×10^4 HeLa cells were determined to be about 0.1, 0.2, and 0.1 pmoles, respectively, at 14 hours post-replating; and about 0.01, 0.1, and 1.0 pmoles, respectively, at 19 hours post-replating).
# For kinase reactions, insect cell-produced and purified GST-cyclin A/Cdk2 was used at a concentration of ˜3 nM, which was the lowest concentration that yielded readily detectible phosphorylation of GST-Rb-C here. Purified p27, GST-Skp2, and Skp2N were titrated into the kinase reaction over a wide range of concentrations (FIGS. 7A, B, and C). Phosphorylation of Rb-C was measured and plotted, and the Ki of these various proteins were determined by non-linear least squares analysis (FIG. 7F).
# Since Skp2 competes with p27 for binding to cyclin A and Skp2's Ki is about 100-fold higher than p27's Ki, it can be reasoned that, at concentrations well below its Ki, Skp2 might be able to protect cyclin A/Cdk2 from inhibition by p27. To test this hypothesis, the same cyclin A/Cdk2 kinase assay was carried out to determine the inhibitory activity of p27 in the presence of 80 nM of Skp2N.
# It was then determined whether the 4060 peptide could prevent Skp2N from protecting cyclin A/Cdk2 from inhibition by p27. […] When 80 nM of Skp2N was included, 5 nM of p27 lost its ability to inhibit the kinase activity (lane 3). […] These findings indicate that the Skp2-cyclin A interaction is also a potential target to inhibit cyclin A kinase activity in tumor cells, particularly those overexpressing Skp2.
# To test this prediction, various peptides were added to an in vitro kinase reaction with purified cyclin A/Cdk2 (˜3 nM concentration). An E2F1-derived RxL peptide, LDL peptide, was used for comparison since it could inhibit cyclin A/Cdk2 kinase activity (Sun et al., 2006, and see next section). Since a TAT sequence was later added to these peptides for trans-membrane delivery (see next section), two versions of each peptide (without TAT and with TAT) was used in these kinase assays. These two versions of peptides yielded identical results and therefore only presented results with one version of the peptides.
# The effects of the 4060 peptide on cyclin A/Cdk2 kinase activity in the presence of Skp2 and p27 were then determined.
# U2OS cells = test system: U2OS cells
# Experimental: It is currently unknown how peptide concentrations in the culture media translate into intro-cellular peptide concentrations.
# Whether artificial manipulation of Skp2 protein levels in U2OS cells could change the IC50 of various peptides was also investigated.
# (§5) Cell proliferation and survival assays. For the cell proliferation assay shown in FIG. 10D, 1×10^4 cells were plated in each well of 24 well plates and allowed to grow for a course of four days in the presence of 10% FBS. Cell numbers were counted every day from triplet wells. For cell survival assays in FIGS. 13, 14 and 15, 1×10^3 cells were plated in each well of 96 well plates and allowed to adhere overnight in the presence of 10% FBS. The cells were washed once with Opti-MEM (GIBCO) followed by incubation with different concentrations of peptides in Opti-MEM for 24 hours in triplicate. MTS assay was then performed following manufacturer's protocol (Promega).
# [6] = test system: human diploid fibroblasts WI-38; assay: Cell survival MTS assay, WI-38; type: cell-based; settings: 120 μM, 24 hours
# Experimental: In comparison, both TAT-Umt and TAT-4060 inhibited cyclin A/Cdk2 kinase activity in vitro at peptide concentrations of 100 μM (FIG. 11B). It is currently unknown how peptide concentrations in the culture media translate into intro-cellular peptide concentrations.
# as §5
# p27 = assay: Western blot of peptide-treated U2OS cell extracts; type: cell-based, human; settings: U2OS cells, 50 μM peptide, twelve hours
# Experimental: as §3, §4
# HeLa cells = assay: Cell survival MTS assay, HeLa; type: cell-based, human; settings: high levels of Skp2
# From the text: IC50 of the 4060 peptide positively correlates with Skp2 protein abundance in cancer cells. Skp2 is frequently overexpressed at various levels in various cancer cells. If TAT-4060 kills cancer cells by disrupting Skp2-cyclin A interaction, higher peptide concentrations should be needed to kill cancer cells with higher levels of Skp2. In comparison, since TAT-LDL is believed to kill cancer cells by blocking access of cyclin A to E2F1, there need not be a direct correlation between effective TAT-LDL concentrations and cellular Skp2 protein levels. To test this prediction, Skp2 protein levels and IC50 of both TAT-4060 and TAT-LDL was determined for the panel of four cancer cell lines.
# as §5
Sequence,Blocking of Skp2N-cyclin A interaction [1],Blocking of p27-cyclin A interaction (p27-cyclin A interaction),Effect of peptide itself on cyclin A/Cdk2 kinase activity towards Rb-C (cyclin A/Cdk2 [2]),Dissociation of interaction between cellular Skp2 and cyclin A/Cdk2 [3],Kinase activity in anti-cyclin A and anti-Cdk2 immune complexes [4],Inhibitory effect on cyclin A/Cdk2 kinase activity (cyclin A/Cdk2 [5]; 1 μM and 10 μM peptide),Inhibition of cyclin A/Cdk2 kinase activity (cyclin A/Cdk2 [5]; 100 μM peptide),Concentration of peptide to achieve 40% killing (U2OS cells; U2OS with artificial decrease in Skp2 protein levels (knockdown)),Cell killing effectiveness (U2OS cells; U2OS with artificial increase of Skp2 protein levels (overexpression)),"Cell killing effect of single peptide (U2OS cells; U2OS, 1 or 2 μM, 24 hours)","Concentration of peptide to achieve 40% killing (U2OS cells; U2OS, Skp2 levels not manipulated)","Cell killing effect (U2OS cells; U2OS, twenty four hours after addition of peptides)","IC50 (U2OS cells; read-out: IC50 of cell killing, U2OS, 24 hours, MTS)",WI-38 cells killed [6],Cellular p27 protein levels (p27),Peptide concentration required for cell killing (HeLa cells)
SACRNLFG (peptide RxL) [reference compound],but not the Skp2N-cyclin A interaction,blocking the p27-cyclin A interaction,inhibited the kinase activity,–,–,–,–,–,–,–,–,–,–,–,–,–
YGRKKRRQRRRGKTSELLSGMGVSALEKEE [TAT-4060],–,–,–,resulted in dissociation,clear reduction,did not show inhibitory effect,significant inhibition,20 µM,nearly as ineffective as TAT-Umt,neither TAT-LDL nor TAT-4060 exhibited any cell killing effects,40 µM,induced significant cell death,35 µM,no effect,not affected,very high concentrations
